# Source: ChEMBL document CHEMBL1133155, “Carbonic anhydrase inhibitors: topical sulfonamide antiglaucoma agents incorporating secondary amine moieties” (Bioorg Med Chem Lett, 2000)
# Key:
# Carbonic anhydrase 4 = target: T1, Carbonic anhydrase 4 (Bos taurus, UniProt Q95323)
# T1 sequence (Q95323 whole entry): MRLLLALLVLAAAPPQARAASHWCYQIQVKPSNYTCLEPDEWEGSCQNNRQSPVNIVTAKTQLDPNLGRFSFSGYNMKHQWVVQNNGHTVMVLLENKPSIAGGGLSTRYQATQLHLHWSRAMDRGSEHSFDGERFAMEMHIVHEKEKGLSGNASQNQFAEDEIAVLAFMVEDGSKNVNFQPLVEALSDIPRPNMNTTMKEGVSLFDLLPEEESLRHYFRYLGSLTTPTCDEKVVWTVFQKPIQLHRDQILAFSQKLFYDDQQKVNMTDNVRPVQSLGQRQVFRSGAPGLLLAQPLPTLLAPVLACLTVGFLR
# Description: Inhibition of bovine Carbonic anhydrase IV determined by esterase method
# Carbonic anhydrase 1 = Carbonic anhydrase 1 (Homo sapiens, UniProt P00915)
# Description: Inhibition of human cloned Carbonic anhydrase I
# Carbonic anhydrase 2 = Carbonic anhydrase 2 (Homo sapiens, UniProt P00918)
# Description: Inhibition of human cloned Carbonic anhydrase II
# [1] = octanol/water
# Description: Partition coefficient (logD) (chloroform/buffer)
# Oryctolagus cuniculus [2] = organism: Oryctolagus cuniculus
# Description: In vitro transcorneal accession rate (without epithelium) of compound was determined
# Oryctolagus cuniculus [3] = organism: Oryctolagus cuniculus; remark: listed apart in the source
# Description: Reduction of intraocular pressure in normotensive rabbits after treatment with 50 uL of compound (as HCl salt) at pH 5.5 in eye after 0 min from administration, to that of controls
# Oryctolagus cuniculus [4] = organism: Oryctolagus cuniculus; remark: listed apart in the source
# Description: Reduction of intraocular pressure in normotensive rabbits after treatment with 50 uL of compound (as HCl salt) at pH 5.5 in eye after 30 min from administration, to that of controls
# Oryctolagus cuniculus [5] = organism: Oryctolagus cuniculus; remark: listed apart in the source
# Description: In vitro transcorneal accession rate (intact cornea) of compound was determined
# Oryctolagus cuniculus [6] = organism: Oryctolagus cuniculus; remark: listed apart in the source
# Description: Reduction of intraocular pressure in normotensive rabbits after treatment with 50 uL of compound (as HCl salt) at pH 5.5 in eye after 240 min from administration, to that of controls
# Oryctolagus cuniculus [7] = organism: Oryctolagus cuniculus; remark: listed apart in the source
# Description: Reduction of intraocular pressure in normotensive rabbits after treatment with 50 uL of compound (as HCl salt) at pH 5.5 in eye after 90 min from administration, to that of controls
# Oryctolagus cuniculus [8] = organism: Oryctolagus cuniculus; remark: listed apart in the source
# Description: Reduction of intraocular pressure in normotensive rabbits after treatment with 50 uL of compound (as HCl salt) at pH 5.5 in eye after 60 min from administration, to that of controls
# physchem = conditions: buffer, pH 7.4
# Description: Solubility (hydrochloride salt) in buffer at pH 7.4 and at 25 degree celsius.
# Carbonic anhydrase 1, sequence (P00915 whole entry): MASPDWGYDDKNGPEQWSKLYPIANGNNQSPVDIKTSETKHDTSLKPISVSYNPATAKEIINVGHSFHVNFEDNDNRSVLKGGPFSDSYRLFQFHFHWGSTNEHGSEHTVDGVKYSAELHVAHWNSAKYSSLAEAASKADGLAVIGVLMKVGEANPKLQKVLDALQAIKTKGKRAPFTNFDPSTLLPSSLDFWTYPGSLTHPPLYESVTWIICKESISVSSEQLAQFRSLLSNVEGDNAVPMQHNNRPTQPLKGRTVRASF
SMILES,Ki (Carbonic anhydrase 4) [nM],Ki (Carbonic anhydrase 1) [nM],Ki (Carbonic anhydrase 2) [nM],logD [1],Kin (Oryctolagus cuniculus [2]) [h⁻¹],Delta IOP (Oryctolagus cuniculus [3]) [mmHg],Delta IOP (Oryctolagus cuniculus [4]) [mmHg],Kin (Oryctolagus cuniculus [5]) [h⁻¹],Delta IOP (Oryctolagus cuniculus [6]) [mmHg],Delta IOP (Oryctolagus cuniculus [7]) [mmHg],Delta IOP (Oryctolagus cuniculus [8]) [mmHg],solubility (physchem) [mM]
NS(=O)(=O)c1ccccc1NCc1cc(=O)oc2cc(Cl)ccc12,300,21500,270,–,–,–,–,–,–,–,–,–
Cn1nc(S(N)(=O)=O)s/c1=N\S(=O)(=O)c1ccc(NCc2cc(=O)oc3cc(Cl)ccc23)cc1,0.6,1,0.5,–,–,–,–,–,–,–,–,–
NS(=O)(=O)c1ccc(NCc2cc(=O)oc3cc(Cl)ccc23)c(Cl)c1,96,520,45,–,–,–,–,–,–,–,–,–
NS(=O)(=O)c1nnc(NC(=O)CCNCc2cc(=O)oc3cc(Cl)ccc23)s1,16,12,2,0.683,8400,0,5.1,3300,3.4,7.2,8.3,62
NS(=O)(=O)c1nnc(NN2C(=O)c3cccnc3C2=O)s1,18,39,8,0.315,7600,–,–,2500,–,–,–,72
NS(=O)(=O)c1cc(S(N)(=O)=O)c(NCc2cc(=O)oc3cc(Cl)ccc23)cc1Cl,50,400,12,–,–,–,–,–,–,–,–,–
NS(=O)(=O)c1nnc(NS(=O)(=O)c2ccc(NCc3cc(=O)oc4cc(Cl)ccc34)cc2)s1,4,5,2,–,–,–,–,–,–,–,–,–
Cn1nc(S(N)(=O)=O)s/c1=N\Cc1cc(=O)oc2cc(Cl)ccc12,16,29,6,–,–,–,–,–,–,–,6,–
NS(=O)(=O)c1nnc(NCc2cc(=O)oc3cc(Cl)ccc23)s1,15,36,7,0.558,6500,0,3.9,2800,1.5,4.9,5.8,54
NS(=O)(=O)c1cccc(NS(=O)(=O)c2ccc(NCc3cc(=O)oc4cc(Cl)ccc34)cc2)c1,30,36,6,–,–,–,–,–,–,–,–,–
NS(=O)(=O)c1ccc(CNCc2cc(=O)oc3cc(Cl)ccc23)cc1,240,1060,145,–,–,–,–,–,–,–,–,–
NS(=O)(=O)c1ccc(NNCc2cc(=O)oc3cc(Cl)ccc23)cc1,320,21800,275,–,–,–,–,–,–,–,–,–
NS(=O)(=O)c1ccc(NS(=O)(=O)c2ccc(NCc3cc(=O)oc4cc(Cl)ccc34)cc2)cc1,14,33,3,–,–,–,–,–,–,–,–,–
NS(=O)(=O)c1ccc(NCc2cc(=O)oc3cc(Cl)ccc23)c(Br)c1,78,600,33,–,–,–,–,–,–,–,–,–
NS(=O)(=O)c1ccc(NCc2cc(=O)oc3cc(Cl)ccc23)c(I)c1,70,610,36,–,–,–,–,–,–,–,–,–
CCN(Cc1cc(=O)oc2cc(Cl)ccc12)C1CC(C)S(=O)(=O)c2sc(S(N)(=O)=O)cc21 (stereo not given),25,18000,8,1.762,5900,0,1.9,2100,0,1.6,3.7,41
NS(=O)(=O)c1ccc(NCc2cc(=O)oc3cc(Cl)ccc23)cc1,170,15000,125,–,–,–,–,–,–,–,–,–
NS(=O)(=O)c1ccc(CCNCc2cc(=O)oc3cc(Cl)ccc23)cc1,225,950,120,–,–,–,–,–,–,–,–,–
NS(=O)(=O)c1ccc(NCc2cc(=O)oc3cc(Cl)ccc23)c(F)c1,110,540,30,–,–,–,–,–,–,–,–,–
NS(=O)(=O)c1cccc(NCc2cc(=O)oc3cc(Cl)ccc23)c1,280,20000,250,–,–,–,–,–,–,–,–,–
NS(=O)(=O)c1cc(S(N)(=O)=O)c(NCc2cc(=O)oc3cc(Cl)ccc23)c(Cl)c1Cl,49,500,18,–,–,–,–,–,–,–,–,–
